Test results published in publication PMC8123395, “Aggregation and Its Influence on the Bioactivities of a Novel Antimicrobial Peptide, Temporin-PF, and Its Analogues” (International Journal of Molecular Sciences, 2021).
No end group written: not given here.

How the values were obtained:
Format in all cases: cell-based
[1] = test system: S. aureus (NCTC 10788); test: SYTOX Green stain uptake assay (membrane permeabilization); conditions: peptide 10 µM, within 120 min, 37 °C, relative to 70% isopropanol-treated cells, three replicates
Experimental: Figure 10 Membrane permeabilization effect of TPF and the analogs (10 µM) on Gram-positive bacteria S. aureus was indicated by the uptake of SYTOX Green dye over 120 min. The error bar represents SD of three replicates.
A membrane permeability assay was conducted on S. aureus (NCTC 10788) and E.coli (NCTC 10418) using the SYTOX™ Green Nucleic Acid Stain (Thermo Fisher Scientific, Waltham, MA, USA) as described previously, with some modifications. For S. aureus, to obtain the fluorescence kinetics of membrane permeabilization, the bacterial suspension and peptide solutions, prepared in 5% tryptic soy broth (TSB) (v/v) in 0.85% NaCl solution (m/v), were mixed to give a final concentration at 10 µM in a black 96-well plate, and further incubated for 120 min at 37 °C. Subsequently, 5 µM SYTOX Green nucleic acid stain was added into each well and immediately detected by a fluorescent plate reader with excitation of 485 nm and emission of 528 nm. The total permeabilized cells of S. aureus were prepared by treating with 70% isopropanol and further resuspended in 5% TSB/0.85% NaCl solution after washing.

[2] = test system: S. aureus biofilm; conditions: biofilm, 24 h
Experimental: (§1) MBIC and MBEC assays were performed as previously described with minor modifications. For the MBIC assay, a suspension of broth diluted bacteria culture (5 × 10^5 CFU/mL) was incubated with the peptide solutions at 37 °C for 24 h. For MBEC assay, 100 μL inoculum culture was seeded to a 96-well-flat-bottom plate and incubated at 37 °C for 48 h to obtain the mature biofilm. Afterwards, the plate was washed by sterile phosphate-buffered saline (PBS; Sigma-Aldrich, Gillingham, UK) twice and treated with a series peptide solution at 37 °C for 24 h. Then, all the plates were washed with PBS and stained by 100 μL 0.1% crystal violet solution (Sigma-Aldrich, Gillingham, UK), and further dissolved by 30% acetic acid (Sigma-Aldrich, Gillingham, UK). The absorbance of each well was recorded by Synergy HT plate reader (Biotech, Minneapolis, MN, USA) at 595 nm.

[3] = test system: MRSA mature biofilm; conditions: mature biofilm, 48 h
Experimental: as §1

[4] = test system: MRSA biofilm; conditions: biofilm, 24 h
Experimental: as §1

[5] = test system: S. aureus mature biofilm; conditions: mature biofilm, 48 h
Experimental: as §1

Q: With LPLIAGLFGKIF-NH2 [des-Phe1 TPF] as the substance, how does the membrane permeabilization [1] read?
A: The membrane permeabilization was “over 50%”.

Q: And the MBIC [2]?
A: Its MBIC is 16 µM.

Q: And the MBEC [3]?
A: Its MBEC is 32/32 µM.

Q: What about the MBIC [4] of the same substance?
A: The MBIC was 32/32 µM.

Q: What about the MBEC [5] of the same substance?
A: Its MBEC is 32 µM.
